Columns and labels:
[1] = target: T1, human recombinant sRNAK receptor (Homo sapiens, UniProt Q9Y6Q6); assay: Inhibition activity of RANK receptor binding (protein chip, sRANK ligand); settings: n=6
T1 construct: human recombinant sRNAK receptor molecule; purchased PeproTech
T1 sequence (Q9Y6Q6 30-212 limits assumed): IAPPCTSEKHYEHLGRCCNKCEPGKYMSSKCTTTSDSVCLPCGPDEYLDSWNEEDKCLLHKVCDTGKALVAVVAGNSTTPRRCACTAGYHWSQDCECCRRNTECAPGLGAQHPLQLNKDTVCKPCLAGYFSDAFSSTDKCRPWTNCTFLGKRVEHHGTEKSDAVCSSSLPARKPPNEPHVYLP
Experimental: After the human recombinant sRNAK receptor molecule (100 μg/ml, PeproTech) was fixed to the protein chip (PeproTech), human recombinant sRANK ligand (10 μg/ml, PeproTech) was treated and incubated for 1 hour. OPG molecule was used as a positive control, and the compound and OPG are simultaneously treated. A comparative analysis was conducted to compare the binding inhibition effect of the compound using OPG as a control. Mouse anti-human sRANK ligand monoclonal antibody coupled with Cy5-fluorescent (1.0 μg/ml, PeproTech) was treated for 30 minutes, and scanning the strength of luminescence by using image analysis scanner and analyzed to the GraphPad Prism 4 software. Out of the above stated compounds, compound 4e and ZA were comparatively analyzed. […] That of the compound 4e was 46.70%.

[2] = target: T2, human integrin αyβ3 (Homo sapiens, UniProt P05106+P06756); assay: Inhibition activity of osteopontin-integrin binding (protein chip); settings: n=6
T2 construct: purchased Milipore
Experimental: After the human integrin αyβ3 (100 μg/ml, Milipore) was fixed to the protein chip (PeproTech), the human recombinant OPN (40 μg/ml, PeproTech) molecule coupled with Cy5-fluorescent was reacted for 1 hour. Echistatin molecule (40 μg/ml, Sigma-Aldrich) was used as a positive control. The samples were simultaneously treated to conduct a comparative analysis for the binding inhibitory effect thereof. Finally, the strength of luminescence is scanned by using image analysis scanner and analyzed to the GraphPad Prism 4 software. […] The binding inhibitory activity of compound 4e of the invention was about 3 times higher than that of ZA (n=6)(FIG. 5).

[3] = test system: RAW 264.7 cell; assay: Inhibition effect on osteoclast differentiation (RANKL-stimulated RAW 264.7 cells, TRAP stain, osteoclast count); assay type: cell-based, mouse; settings: RAW 264.7 + RANKL; for osteoclast differentiation degree (number of cells differentiated to osteoclasts): 7 days, osteoclasts with more than 4 nuclei, two values per concentration, control 51.5
Experimental: RAW 264.7 cell, a mouse macrophage/monocyte cell line which can be differentiated in various forms depends on its surrounding environments and stimuli, is differentiated to multinucleated osteoclast by the stimulus of RANKL (100 ng/ml). Inhibition effect of each compound on osteoclast differentiation was analyzed by comparing the degree of osteoclast differentiation when RAW 264.7 cell was treated with RANKL and the subject each compound simultaneously.
Inhibition activities of osteoclast differentiation in respect of compounds 4a, 4b, 4c, 4d, 4e, 4f, 4 g, 4 h, 4i, 4j, 4k, 4l, 4m, 4n, 4o, 7a, 7b, 7c, and 7d were tested. Macrophage/monocyte RAW 264.7 cell was used as a cell and 1.5×10^3 cells were seeded in a 96 well plate. The synthesized compound and zoledronic acid as a control material were dissolved in 10% DMSO aqueous solution and treated to cells according to each concentration […].
After pre-treating each compound for 6 hours and then, treating RANKL, the incubation was carried out for 7 days in a 5% CO2 incubator. To observe osteoclasts well, they were stained by TRAP (tartrate resistance acid phosphatase) stain method. The number of cells differentiated to osteoclasts was counted and then, a comparative analysis was conducted for the degree of each compound's osteoclast differentiation.
Only the osteoclasts containing nucleus number more than 4 were only counted as effective analysis targets in both control and experiment groups (See FIGS. 1 and 2).

[4] = test system: NF-kappa B; assay: Inhibition of NF-kappa B in RAW264.7 cells; assay type: cell-based, mouse; settings: 10 μM, 12 hours, then ALLN and RANKL 30 minutes
Description: It is confirmed that the compound of 4e is suppressed the mechanism of NF-kappa B 2 times more than ZA (FIG. 3)

T2 sequence (P06756 31-889 limits assumed): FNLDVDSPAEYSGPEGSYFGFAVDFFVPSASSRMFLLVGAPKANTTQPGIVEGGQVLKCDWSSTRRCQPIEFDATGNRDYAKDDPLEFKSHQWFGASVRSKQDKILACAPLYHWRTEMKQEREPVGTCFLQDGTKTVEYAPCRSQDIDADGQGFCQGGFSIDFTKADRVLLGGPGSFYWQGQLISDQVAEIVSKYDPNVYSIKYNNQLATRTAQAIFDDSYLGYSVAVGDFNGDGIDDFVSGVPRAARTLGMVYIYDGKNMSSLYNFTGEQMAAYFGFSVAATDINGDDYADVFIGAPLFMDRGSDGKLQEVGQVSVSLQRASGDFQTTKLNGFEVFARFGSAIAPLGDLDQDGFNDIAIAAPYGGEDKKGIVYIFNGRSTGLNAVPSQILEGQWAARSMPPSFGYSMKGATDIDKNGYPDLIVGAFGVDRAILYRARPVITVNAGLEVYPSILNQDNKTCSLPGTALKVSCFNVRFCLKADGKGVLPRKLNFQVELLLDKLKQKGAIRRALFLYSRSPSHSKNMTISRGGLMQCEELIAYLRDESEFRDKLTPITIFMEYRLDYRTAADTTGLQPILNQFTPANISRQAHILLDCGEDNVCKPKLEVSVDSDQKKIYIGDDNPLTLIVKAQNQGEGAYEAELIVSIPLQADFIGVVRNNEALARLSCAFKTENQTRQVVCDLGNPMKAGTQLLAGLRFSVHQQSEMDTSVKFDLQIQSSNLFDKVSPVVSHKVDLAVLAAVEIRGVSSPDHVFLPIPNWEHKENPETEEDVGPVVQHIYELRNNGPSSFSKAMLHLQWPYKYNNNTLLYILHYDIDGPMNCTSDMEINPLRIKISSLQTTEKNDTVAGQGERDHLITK
T2 sequence (P06756 891-1048 partner limits assumed): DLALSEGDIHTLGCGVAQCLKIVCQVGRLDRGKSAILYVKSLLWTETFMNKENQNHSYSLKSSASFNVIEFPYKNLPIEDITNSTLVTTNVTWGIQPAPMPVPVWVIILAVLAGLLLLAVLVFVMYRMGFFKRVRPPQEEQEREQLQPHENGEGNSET
T2 sequence (P05106 27-788): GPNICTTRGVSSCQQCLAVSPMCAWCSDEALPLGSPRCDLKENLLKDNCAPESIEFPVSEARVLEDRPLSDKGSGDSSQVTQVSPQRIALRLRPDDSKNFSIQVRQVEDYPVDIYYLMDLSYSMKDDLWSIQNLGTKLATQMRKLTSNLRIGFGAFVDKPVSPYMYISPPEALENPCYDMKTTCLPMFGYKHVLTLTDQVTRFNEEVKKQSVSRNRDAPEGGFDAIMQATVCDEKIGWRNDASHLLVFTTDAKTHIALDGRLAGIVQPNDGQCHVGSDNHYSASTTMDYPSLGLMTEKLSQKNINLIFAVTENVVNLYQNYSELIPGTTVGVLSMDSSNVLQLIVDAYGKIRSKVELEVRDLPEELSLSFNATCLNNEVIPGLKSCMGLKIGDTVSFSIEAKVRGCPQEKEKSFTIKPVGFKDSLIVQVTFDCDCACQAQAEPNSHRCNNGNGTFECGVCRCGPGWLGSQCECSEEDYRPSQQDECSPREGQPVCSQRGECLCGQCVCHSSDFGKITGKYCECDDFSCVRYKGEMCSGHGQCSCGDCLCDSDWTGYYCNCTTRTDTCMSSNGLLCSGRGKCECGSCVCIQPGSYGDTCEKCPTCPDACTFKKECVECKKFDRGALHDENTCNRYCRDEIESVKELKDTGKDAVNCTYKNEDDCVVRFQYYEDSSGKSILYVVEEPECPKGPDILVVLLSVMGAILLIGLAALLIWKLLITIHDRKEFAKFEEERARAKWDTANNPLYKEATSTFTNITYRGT

CC(C)c1cccc(C(C)C)c1N1C(=O)C(c2ccccc2)=C(c2ccccc2)C1=O [Compound 4a, 1-(2,6-diisopropylphenyl)-3,4-diphenyl-1H-pyrrole-2,5-dione]
melting point: 233 to 234 °C

O=C1C(c2ccccc2)=C(c2ccccc2)C(=O)N1Cc1cccc(F)c1 [Compound 4o, 1-(3-fluorobenzyl)-3,4-diphenyl-1H-pyrrole-2,5-dione]
melting point: 107 to 108 °C

OPG: OPG (osteoprotegrin) molecule, RANKL antagonist, used as a positive control [reference compound]
binding inhibitory activity upon to RANK receptor [1]: 83.65%

O=C1C(c2ccccc2)=C(c2ccccc2)C(=O)N1CCc1ccccc1F [Compound 4r, 1-(2-fluorophenethyl)-3,4-diphenyl-1H-pyrrole-2,5-dione]
melting point: 111 to 112 °C

O=C1C(c2ccccc2)=C(c2ccccc2)C(=O)N1C1CCCCC1 [Compound 4g, 1-cyclohexyl-3,4-diphenyl-1H-pyrrole-2,5-dione]
melting point: 159 to 160 °C

O=C1C(c2ccccc2)=C(c2ccccc2)C(=O)N1c1ccccc1Cl [Compound 4c, 1-(2-chlorophenyl)-3,4-dipheyl-1H-pyrrole-2,5-dione]
melting point: 213 to 214 °C

O=C1C(c2ccccc2)=C(c2ccccc2)C(=O)N1Cc1ccccc1F [Compound 4n, 1-(2-fluorobenzyl)-3,4-diphenyl-1H-pyrrole-2,5-dione]
melting point: 113 to 114 °C

O=C1C(c2ccccc2)=C(c2ccccc2)C(=O)N1c1ccccc1C(F)(F)F [Compound 4f, 3,4-diphenyl-1-(2-(trifluoromethyl)phenyl)-1H-pyrrole-2,5-dione]
melting point: 152 to 153 °C

Echistatin [reference compound]
binding inhibitory rate with integrin molecule (OPN-integrin) [2]: 51.75%

O=C1C(c2ccccc2)=C(c2ccccc2)C(=O)N1CCc1ccc(F)cc1 [Compound 4t, 1-(4-fluorophenethyl)-3,4-diphenyl-1H-pyrrole-2,5-dione]
melting point: 153 to 154 °C

O=P(O)(O)C(O)(Cn1ccnc1)P(=O)(O)O [ZA, zoledronic acid, reference compound]
binding inhibitory activity upon to RANK receptor [1]: 27.55%
binding inhibitory rate with integrin molecule (OPN-integrin) [2]: 8.65%

O=C1C(c2ccccc2)=C(c2ccccc2)C(=O)N1CCc1cccc(F)c1 [Compound 4s, 1-(3-fluorophenethyl)-3,4-diphenyl-1H-pyrrole-2,5-dione]
melting point: 129 to 130 °C

O=C1C(c2ccccc2)=C(c2ccccc2)C(=O)N1c1cccc(F)c1 [Compound 4k, 1-(3-fluorophenyl)-3,4-diphenyl-1H-pyrrole-2,5-dione]
osteoclast differentiation degree (number of cells differentiated to osteoclasts) ([3]; 0.5 μM): 40
osteoclast differentiation degree (number of cells differentiated to osteoclasts) ([3]; 1 μM): 25
osteoclast differentiation degree (number of cells differentiated to osteoclasts) ([3]; 5 μM): 40
osteoclast differentiation degree (number of cells differentiated to osteoclasts) ([3]; 10 μM): 28
melting point: 157 to 158 °C

O=C1C(c2ccccc2)=C(c2ccccc2)C(=O)N1c1ccc(Cl)cc1 [Compound 4e, 1-(4-chlorophenyl)-3,4-diphenyl-1H-pyrrole-2,5-dione]
inhibition effect on osteoclast differentiation (in words) [3]: more superior inhibition effect on osteoclast differentiation than the control group of zoledronic acid
suppression of the mechanism of NF-kappa B relative to ZA [4]: 2 times
binding inhibitory activity upon to RANK receptor [1]: 46.70%
binding inhibitory activity upon to RANK receptor relative to ZA [1]: about 1.7 times
OPN-integrin binding inhibitory activity relative to ZA [2]: about 3 times
binding inhibitory rate with integrin molecule (OPN-integrin) [2]: 26.45%

O=C(O)c1cc(N2C(=O)C(c3ccccc3)=C(c3ccccc3)C2=O)ccc1O [Compound 4i, 5-(2,5-dioxo-3,4-diphenyl-2,5-dihydro-1H-pyrrol-1-yl)-2-hydroxybenzoic acid]
melting point: 249 to 250 °C

O=C1C(c2ccccc2)=C(c2ccccc2)C(=O)N1c1cccc(Cl)c1 [Compound 4d, 1-(3-chlorophenyl)-3,4-diphenyl-1H-pyrrole-2,5-dione]
melting point: 144 to 145 °C
